“Also recorded” adds a separate entry of the source.
Tests used:
dopamine receptor = settings: literature; cited from earlier work
prolactin secretion = assay: Prolactin secretion inhibition in reserpine-treated rats; format: in vivo, rat (adult male Sprague-Dawley); settings: 1 mg./kg. intraperitoneal; reserpine-pretreated male rats; serum 1 hour after treatment
Description: The compounds of this invention are also useful as inhibitors of prolactin secretion. Dopaminergic drugs with such activity can be employed in the treatment of inappropriate lactation, such as postpartum lactation and galactorrhea. […] Each rat received an intraperitoneal injection of 2.0 mg. of reserpine in aqueous suspension 18 hours before administration of the test compound. The purpose of the reserpine was to keep prolactin levels uniformly elevated. The compounds under test were dissolved in water and were injected intraperitoneally at a 1 mg./kg. dose level. Each compound was administered to a group of 10 rats, and a control group of 10 intact males received an equivalent amount of solvent only. One hour after treatment all rats were killed by decapitation, and 150 μl. aliquots of serum were assayed for prolactin.
In the table, column 1 gives the name of the compound and column 2, the percent inhibition of prolactin secretion. The dosage was 1 mg./kg.

[1] = system: mean arterial blood pressure, anesthetized spontaneously hypertensive rats; assay: Blood pressure lowering in anesthetized spontaneously hypertensive rats (SHR); format: in vivo, rat (spontaneously hypertensive); settings: ± standard error
Description: As previously stated, the compounds of this invention are dopamine agonists. As such, one of their properties, shared by many dopamine agonists, is the ability to lower blood pressure in anesthetized spontaneously hypertensive rats (SHR). Table 1 which follows gives the results of testing compounds of this invention which lowered the blood pressure of anesthetized SHR at dose levels of 1 mg./kg. or lower. In the Table, the first 4 columns give the substitution pattern of the hydroxyaminonaphthalene carboxamide and the second 4 columns the percent blood pressure lowering±standard error for the particular compound at 4 different dose levels.

[2] = system: 6-hydroxydopamine-lesioned rats (nigro-neostriatal-lesioned), turning behavior; assay: Turning behavior in 6-hydroxydopamine-lesioned rats; format: in vivo, rat; settings: 1 mg./kg. intraperitoneal; for Number of turns (average): counted over a 15-minute period after latency
From the text: Compounds with dopaminergic or dopamine agonist activity also affect turning behavior in a test procedure utilizing 6-hydroxydopamine-lesioned rats. In this test, nigro-neostriatal-lesioned rats, prepared by the procedure of Ungerstedt and Arbuthnott, Brain Res, 24, 485 (1970), are employed. A compound having dopamine agonist activity, upon injection, causes the rats to turn in circles contralateral to the side of the lesion. After a latency period, which varies from compound to compound, the number of turns is counted over a 15-minute period. The drugs to be administered are dissolved in water and the resulting aqueous solution injected into the rat by the intraperitoneal route at a 1 mg./kg. dose level.

[3] = literature; cited from earlier work

## CN(C)C1CCc2cc(O)c(O)cc2C1 (stereo not drawn) [6,7-dihydroxy isomer]
Dopamine receptor
  dopamine-like activity (in words): presynaptic dopamine receptor agonist

## CCCN(CCC)C1CCc2cc(O)c(C(N)=O)cc2C1 (racemic) [dl-3-Hydroxy-7-di-n-propylamino-5,6,7,8-tetrahydro-2-naphthalenecarboxamide]
Prolactin secretion
  Percent Inhibition of Prolactin Secretion: 88%
[1]; 1 mg./kg.
  Percent lowering of mean arterial blood pressure: -41.9 ± 1.6%
[1]; 7 mcg./kg.
  Percent lowering of mean arterial blood pressure: -6.8 ± 0.5%
[1]; 10 mcg./kg.
  Percent lowering of mean arterial blood pressure: -19.6 ± 0.8%
[1]; 100 mcg./kg.
  Percent lowering of mean arterial blood pressure: -35.9 ± 2.3%
[2]
  Percentage of rats exhibiting turning behavior: 75%
  Number of turns (average): 71

## NC(=O)c1cc2c(cc1O)CCC(N)C2 (racemic) [dl-3-Hydroxy-7-amino-5,6,7,8-tetrahydro-2-naphthlenecarboxamide]
Prolactin secretion
  Percent Inhibition of Prolactin Secretion: 18%
[1]; 1 mg./kg.
  Percent lowering of mean arterial blood pressure: -18.3 ± 4.3%
[1]; 7 mcg./kg.
  Percent lowering of mean arterial blood pressure: -3.6 ± 0.4%
[1]; 10 mcg./kg.
  Percent lowering of mean arterial blood pressure: -5.2 ± 0.8%
[1]; 100 mcg./kg.
  Percent lowering of mean arterial blood pressure: -10.2 ± 1.2%

## CN(C)C1CCc2c(ccc(O)c2O)C1 (centres unmarked) [Example M7, 2-dimethylamino-5,6-dihydroxy-1,2,3,4-tetralin]
Dopamine receptor
  dopamine-like activity (in words): dopamine-like activity; also recorded: Its action parallels that of apomorphine

## CN(C)C1CCc2c(ccc(O)c2C(N)=O)C1 (racemic) [R=CONH2, R^1=H, R^2=Me, R^3=Me, dl-2-hydroxy-6-dimethylamino-5,6,7,8-tetrahydro-1-naphthalenecarboxamide]
[1]; 1 mg./kg.
  Percent lowering of mean arterial blood pressure: -6.0 ± 0.5%
[1]; 7 mcg./kg.
  Percent lowering of mean arterial blood pressure: -6.8 ± 0.3%
[1]; 10 mcg./kg.
  Percent lowering of mean arterial blood pressure: -5.7 ± 0.3%
[1]; 100 mcg./kg.
  Percent lowering of mean arterial blood pressure: -6.7 ± 0.8%

## CN(C)C1CCc2cc(O)c(C(N)=O)cc2C1 (racemic) [dl-3-hydroxy-7-dimethylamino-5,6,7,8-tetrahydro-2-naphthalenecarboxamide]
Prolactin secretion
  Percent Inhibition of Prolactin Secretion: 36%
[1]; 1 mg./kg.
  Percent lowering of mean arterial blood pressure: -32.5 ± 2.2%
[1]; 7 mcg./kg.
  Percent lowering of mean arterial blood pressure: -6.2 ± 0.7%
[1]; 10 mcg./kg.
  Percent lowering of mean arterial blood pressure: -14.0 ± 0.5%
[1]; 100 mcg./kg.
  Percent lowering of mean arterial blood pressure: -25.1 ± 3.0%
[2]
  Percentage of rats exhibiting turning behavior: 50%
  Number of turns (average): 20

## CCCN(CCC)C1CCc2c(ccc(O)c2C(N)=O)C1 (racemic) [dl-2-Hydroxy-6-di-n-propylamino-5,6,7,8-tetrahydro-1-naphthalenecarboxamide]
Prolactin secretion
  Percent Inhibition of Prolactin Secretion: 12%

## NC1CCc2cc(O)c(O)cc2C1 (centres unmarked) [ADTN, 2-amino-6,7-dihydroxy-1,2,3,4-tetralin]
Dopamine receptor
  dopamine-like activity (in words): dopamine-like action

## CC(C)NC1CCc2c(ccc(O)c2CO)C1O (centres unmarked) [1-hydroxymethyl-2,5-dihydroxy-6-isopropylamino-5,6,7,8-tetrahydronaphthalene]
[3]
  bronchodilator activity (in words): bronchodilator

## NC(=O)c1c(O)ccc2c1CCC(N)C2 (racemic) [dl-2-Hydroxy-6-amino-5,6,7,8-tetrahydronaphthalene-1-carboxamide]
Prolactin secretion
  Percent Inhibition of Prolactin Secretion: 13%
